Source: the supplement of paper PMC10307832

Legend:
Experiment in all cases: relative viability (nuclei count vs DMSO), 5 days (fraction); higher = more cells survive
FH535 + Pictilisib = compound: CC1=C(C=CC(=C1)[N+](=O)[O-])NS(=O)(=O)C2=C(C=CC(=C2)Cl)Cl [FH535] + CS(=O)(=O)N1CCN(Cc2cc3nc(-c4cccc5[nH]ncc45)nc(N4CCOCC4)c3s2)CC1 [Pictilisib] (partner 1 µM)
Procedure, shortened: (§1)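 Lung cancer cell lines were seeded in 1536-well plates and dosed by pin tool the next day, with either a single drug or a fixed anchor-drug dose combined with five library-drug doses (not always all listed) spaced in √10 steps. Five days later, one step fixed the cells and stained their nuclei (final 0.05% Triton X-100, 1% formaldehyde, 1 ug/ml Hoechst), and nuclei were counted on 4× images. Relative viability is the nuclei count in treated wells divided by the count in vehicle wells, and each value is the median of duplicate plates.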

FH535 + Lapatinib = compound: CC1=C(C=CC(=C1)[N+](=O)[O-])NS(=O)(=O)C2=C(C=CC(=C2)Cl)Cl [FH535] + CS(=O)(=O)CCNCc1ccc(-c2ccc3ncnc(Nc4ccc(OCc5cccc(F)c5)c(Cl)c4)c3c2)o1 [Lapatinib] (partner 2 µM)
Procedure, shortened: as §1

FH535 + Foretinib = compound: CC1=C(C=CC(=C1)[N+](=O)[O-])NS(=O)(=O)C2=C(C=CC(=C2)Cl)Cl [FH535] + COc1cc2c(Oc3ccc(NC(=O)C4(C(=O)Nc5ccc(F)cc5)CC4)cc3F)ccnc2cc1OCCCN1CCOCC1 [Foretinib] (partner 0.25 µM)
Procedure, shortened: as §1

FH535 + Bortezomib = compound: CC1=C(C=CC(=C1)[N+](=O)[O-])NS(=O)(=O)C2=C(C=CC(=C2)Cl)Cl [FH535] + CC(C)C[C@H](NC(=O)[C@H](Cc1ccccc1)NC(=O)c1cnccn1)B(O)O [Bortezomib] (partner 0.002 µM)
Procedure, shortened: as §1

FH535 + Linsitinib = compound: CC1=C(C=CC(=C1)[N+](=O)[O-])NS(=O)(=O)C2=C(C=CC(=C2)Cl)Cl [FH535] + C[C@]1(O)C[C@@H](c2nc(-c3ccc4ccc(-c5ccccc5)nc4c3)c3c(N)nccn32)C1 [Linsitinib] (partner 1 µM)
Procedure, shortened: as §1

FH535 + Olaparib = compound: CC1=C(C=CC(=C1)[N+](=O)[O-])NS(=O)(=O)C2=C(C=CC(=C2)Cl)Cl [FH535] + O=C(c1cc(Cc2n[nH]c(=O)c3ccccc23)ccc1F)N1CCN(C(=O)C2CC2)CC1 [Olaparib] (partner 8 µM)
Procedure, shortened: as §1

FH535 + Navitoclax = compound: CC1=C(C=CC(=C1)[N+](=O)[O-])NS(=O)(=O)C2=C(C=CC(=C2)Cl)Cl [FH535] + CC1(C)CCC(c2ccc(Cl)cc2)=C(CN2CCN(c3ccc(C(=O)NS(=O)(=O)c4ccc(N[C@H](CCN5CCOCC5)CSc5ccccc5)c(S(=O)(=O)C(F)(F)F)c4)cc3)CC2)C1 [Navitoclax] (partner 0.5 µM)
Procedure, shortened: as §1

FH535 + Alpelisib = compound: CC1=C(C=CC(=C1)[N+](=O)[O-])NS(=O)(=O)C2=C(C=CC(=C2)Cl)Cl [FH535] + Cc1nc(NC(=O)N2CCC[C@H]2C(N)=O)sc1-c1ccnc(C(C)(C)C(F)(F)F)c1 [Alpelisib] (partner 2 µM)
Procedure, shortened: as §1

FH535 + Crizotinib = compound: CC1=C(C=CC(=C1)[N+](=O)[O-])NS(=O)(=O)C2=C(C=CC(=C2)Cl)Cl [FH535] + C[C@@H](Oc1cc(-c2cnn(C3CCNCC3)c2)cnc1N)c1c(Cl)ccc(F)c1Cl [Crizotinib] (partner 1 µM)
Procedure, shortened: as §1

FH535 = compound: CC1=C(C=CC(=C1)[N+](=O)[O-])NS(=O)(=O)C2=C(C=CC(=C2)Cl)Cl [FH535]
Procedure, shortened: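 Nuclei counted with MetaXpress define viability as the ratio of treated to vehicle wells, given as a median across plates. The lung cancer cell lines were in 1536-well plates, pinned with five √10-spaced library-drug doses and imaged at 4× after 5 days and Hoechst staining. Plates passed with control CV below 25% and at least one doubling.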

FH535 + Luminespib = compound: CC1=C(C=CC(=C1)[N+](=O)[O-])NS(=O)(=O)C2=C(C=CC(=C2)Cl)Cl [FH535] + CCNC(=O)c1noc(-c2cc(C(C)C)c(O)cc2O)c1-c1ccc(CN2CCOCC2)cc1 [Luminespib] (partner 0.01 µM)
Procedure, shortened: as §1

FH535 + OSI-027 = compound: CC1=C(C=CC(=C1)[N+](=O)[O-])NS(=O)(=O)C2=C(C=CC(=C2)Cl)Cl [FH535] + COc1cccc2cc(-c3nc([C@H]4CC[C@H](C(=O)O)CC4)n4ncnc(N)c34)[nH]c12 [OSI-027] (partner 0.5 µM)
Procedure, shortened: as §1

FH535 + Dasatinib = compound: CC1=C(C=CC(=C1)[N+](=O)[O-])NS(=O)(=O)C2=C(C=CC(=C2)Cl)Cl [FH535] + Cc1nc(Nc2ncc(C(=O)Nc3c(C)cccc3Cl)s2)cc(N2CCN(CCO)CC2)n1 [Dasatinib] (partner 0.075 µM)
Procedure, shortened: as §1

FH535 + Phenformin = compound: CC1=C(C=CC(=C1)[N+](=O)[O-])NS(=O)(=O)C2=C(C=CC(=C2)Cl)Cl [FH535] + N=C(N)NC(=N)NCCc1ccccc1 [Phenformin] (partner 250 µM)
Procedure, shortened: as §1

FH535 + Tozasertib = compound: CC1=C(C=CC(=C1)[N+](=O)[O-])NS(=O)(=O)C2=C(C=CC(=C2)Cl)Cl [FH535] + Cc1cc(Nc2cc(N3CCN(C)CC3)nc(Sc3ccc(NC(=O)C4CC4)cc3)n2)n[nH]1 [Tozasertib] (partner 0.1 µM)
Procedure, shortened: as §1

## NCI-H1299
FH535 + Pictilisib; first compound 0.04 µM
  relative viability: 0.736
FH535 + Pictilisib; first compound 0.1265 µM
  relative viability: 0.8
FH535 + Pictilisib; first compound 0.4 µM
  relative viability: 0.772
FH535 + Pictilisib; first compound 1.265 µM
  relative viability: 0.712
FH535 + Lapatinib; first compound 0.04 µM
  relative viability: 0.979
FH535 + Lapatinib; first compound 0.1265 µM
  relative viability: 0.947
FH535 + Lapatinib; first compound 0.4 µM
  relative viability: 0.963
FH535 + Lapatinib; first compound 1.265 µM
  relative viability: 0.76
FH535 + Foretinib; first compound 0.04 µM
  relative viability: 1.12
FH535 + Foretinib; first compound 0.1265 µM
  relative viability: 1.07
FH535 + Foretinib; first compound 0.4 µM
  relative viability: 1.12
FH535 + Foretinib; first compound 1.265 µM
  relative viability: 1.03
FH535 + Bortezomib; first compound 0.04 µM
  relative viability: 1.03
FH535 + Bortezomib; first compound 0.1265 µM
  relative viability: 1.03
FH535 + Bortezomib; first compound 0.4 µM
  relative viability: 1.07
FH535 + Bortezomib; first compound 1.265 µM
  relative viability: 0.809
FH535 + Linsitinib; first compound 0.04 µM
  relative viability: 0.98
FH535 + Linsitinib; first compound 0.1265 µM
  relative viability: 0.978
FH535 + Linsitinib; first compound 0.4 µM
  relative viability: 0.957
FH535 + Linsitinib; first compound 1.265 µM
  relative viability: 0.927
FH535 + Olaparib; first compound 0.04 µM
  relative viability: 1.01
FH535 + Olaparib; first compound 0.1265 µM
  relative viability: 1.03
FH535 + Olaparib; first compound 0.4 µM
  relative viability: 0.973
FH535 + Olaparib; first compound 1.265 µM
  relative viability: 0.777
FH535 + Navitoclax; first compound 0.04 µM
  relative viability: 1.04
FH535 + Navitoclax; first compound 0.1265 µM
  relative viability: 1.07
FH535 + Navitoclax; first compound 0.4 µM
  relative viability: 1.08
FH535 + Navitoclax; first compound 1.265 µM
  relative viability: 0.954
FH535 + Alpelisib; first compound 0.04 µM
  relative viability: 1.05
FH535 + Alpelisib; first compound 0.1265 µM
  relative viability: 0.983
FH535 + Alpelisib; first compound 0.4 µM
  relative viability: 1.05
FH535 + Alpelisib; first compound 1.265 µM
  relative viability: 1.07
FH535 + Crizotinib; first compound 0.04 µM
  relative viability: 1
FH535 + Crizotinib; first compound 0.1265 µM
  relative viability: 0.932
FH535 + Crizotinib; first compound 0.4 µM
  relative viability: 0.966
FH535 + Crizotinib; first compound 1.265 µM
  relative viability: 0.876
FH535; 0.04 µM
  relative viability: 1.01
FH535; 0.1265 µM
  relative viability: 1.01
FH535; 0.4 µM
  relative viability: 1.02
FH535; 1.265 µM
  relative viability: 0.932

## Calu-6
FH535 + Pictilisib; first compound 0.04 µM
  relative viability: 1.02
FH535 + Pictilisib; first compound 0.1265 µM
  relative viability: 0.911
FH535 + Pictilisib; first compound 0.4 µM
  relative viability: 0.848
FH535 + Pictilisib; first compound 1.265 µM
  relative viability: 0.748
FH535 + Lapatinib; first compound 0.04 µM
  relative viability: 1.12
FH535 + Lapatinib; first compound 0.1265 µM
  relative viability: 1.14
FH535 + Lapatinib; first compound 0.4 µM
  relative viability: 1
FH535 + Lapatinib; first compound 1.265 µM
  relative viability: 0.76
FH535 + Foretinib; first compound 0.04 µM
  relative viability: 0.815
FH535 + Foretinib; first compound 0.1265 µM
  relative viability: 0.83
FH535 + Foretinib; first compound 0.4 µM
  relative viability: 0.877
FH535 + Foretinib; first compound 1.265 µM
  relative viability: 0.777
FH535 + Bortezomib; first compound 0.04 µM
  relative viability: 0.908
FH535 + Bortezomib; first compound 0.1265 µM
  relative viability: 1.03
FH535 + Bortezomib; first compound 0.4 µM
  relative viability: 0.997
FH535 + Bortezomib; first compound 1.265 µM
  relative viability: 0.772
FH535 + Linsitinib; first compound 0.04 µM
  relative viability: 0.972
FH535 + Linsitinib; first compound 0.1265 µM
  relative viability: 1.04
FH535 + Linsitinib; first compound 0.4 µM
  relative viability: 1
FH535 + Linsitinib; first compound 1.265 µM
  relative viability: 0.814
FH535 + Olaparib; first compound 0.04 µM
  relative viability: 0.583
FH535 + Olaparib; first compound 0.1265 µM
  relative viability: 0.594
FH535 + Olaparib; first compound 0.4 µM
  relative viability: 0.532
FH535 + Olaparib; first compound 1.265 µM
  relative viability: 0.507
FH535 + Navitoclax; first compound 0.04 µM
  relative viability: 0.912
FH535 + Navitoclax; first compound 0.1265 µM
  relative viability: 0.849
FH535 + Navitoclax; first compound 0.4 µM
  relative viability: 0.772
FH535 + Navitoclax; first compound 1.265 µM
  relative viability: 0.547
FH535 + Alpelisib; first compound 0.04 µM
  relative viability: 1.07
FH535 + Alpelisib; first compound 0.1265 µM
  relative viability: 0.982
FH535 + Alpelisib; first compound 0.4 µM
  relative viability: 0.866
FH535 + Alpelisib; first compound 1.265 µM
  relative viability: 0.87
FH535 + Crizotinib; first compound 0.04 µM
  relative viability: 0.797
FH535 + Crizotinib; first compound 0.1265 µM
  relative viability: 0.814
FH535 + Crizotinib; first compound 0.4 µM
  relative viability: 0.783
FH535 + Crizotinib; first compound 1.265 µM
  relative viability: 0.601
FH535; 0.04 µM
  relative viability: 0.938
FH535; 0.1265 µM
  relative viability: 1.05
FH535; 0.4 µM
  relative viability: 0.956
FH535; 1.265 µM
  relative viability: 0.792

## NCI-H1623
FH535 + Luminespib; first compound 0.04 µM
  relative viability: 0.609
FH535 + Luminespib; first compound 0.1265 µM
  relative viability: 0.574
FH535 + Luminespib; first compound 0.4 µM
  relative viability: 0.513
FH535 + Luminespib; first compound 1.265 µM
  relative viability: 0.509
FH535 + OSI-027; first compound 0.04 µM
  relative viability: 0.424
FH535 + OSI-027; first compound 0.1265 µM
  relative viability: 0.525
FH535 + OSI-027; first compound 0.4 µM
  relative viability: 0.451
FH535 + OSI-027; first compound 1.265 µM
  relative viability: 0.413
FH535 + Dasatinib; first compound 0.04 µM
  relative viability: 0.515
FH535 + Dasatinib; first compound 0.1265 µM
  relative viability: 0.468
FH535 + Dasatinib; first compound 0.4 µM
  relative viability: 0.508
FH535 + Dasatinib; first compound 1.265 µM
  relative viability: 0.478
FH535 + Foretinib; first compound 0.04 µM
  relative viability: 0.816
FH535 + Foretinib; first compound 0.1265 µM
  relative viability: 0.855
FH535 + Foretinib; first compound 0.4 µM
  relative viability: 0.823
FH535 + Foretinib; first compound 1.265 µM
  relative viability: 0.777
FH535 + Phenformin; first compound 0.04 µM
  relative viability: 0.551
FH535 + Phenformin; first compound 0.1265 µM
  relative viability: 0.523
FH535 + Phenformin; first compound 0.4 µM
  relative viability: 0.495
FH535 + Phenformin; first compound 1.265 µM
  relative viability: 0.468
FH535 + Tozasertib; first compound 0.04 µM
  relative viability: 0.391
FH535 + Tozasertib; first compound 0.1265 µM
  relative viability: 0.426
FH535 + Tozasertib; first compound 0.4 µM
  relative viability: 0.426
FH535 + Tozasertib; first compound 1.265 µM
  relative viability: 0.45
FH535; 0.04 µM
  relative viability: 1.02
FH535; 0.1265 µM
  relative viability: 0.948
FH535; 0.4 µM
  relative viability: 0.991
FH535; 1.265 µM
  relative viability: 0.912
